Test results reported in ChEMBL document CHEMBL1201862, “PubChem BioAssay data set” (2004).
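Values below derive from 48-hour exposures of cells grown in 96-well plates, with endpoints linearly interpolated between the two concentrations bracketing the appropriate inhibition level. At the GI50, growth is halved.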 Calls of active or inactive are those of the source. Cut-off read from the data, not from the text of the source: active = GI50 up to about 1.1 µM and inactive = higher.

What was measured:
Experiment in all cases: growth of human tumour cells (NCI), 48 h
[1] = system: COLO 205
[2] = system: RPMI-8226
[3] = system: K562
[4] = system: IGROV-1
[5] = system: CAKI-1
[6] = system: MOLT-4
[7] = system: SF-295
[8] = system: DU-145
[9] = system: HOP-62
[10] = system: HCC 2998
[11] = system: EKVX
[12] = system: CCRF-CEM
[13] = system: SNB-75
[14] = system: KM12
[15] = system: A549
[16] = system: MDA-N
[17] = system: SK-MEL-28
[18] = system: HT-29
[19] = system: HL-60
[20] = system: OVCAR-8
[21] = system: MDA-MB-231
[22] = system: 786-0
[23] = system: NCI-H23
[24] = system: SR
[25] = system: SK-MEL-5
[26] = system: LOX IMVI
[27] = system: M14
[28] = system: TK-10
[29] = system: Malme-3M
[30] = system: RXF 393
[31] = system: SW-620
[32] = system: SK-OV-3
[33] = system: HCT-15
[34] = system: MCF7
[35] = system: UACC-257
[36] = system: SN12C
[37] = system: T47D
[38] = system: UACC-62
[39] = system: PC-3
[40] = system: SK-MEL-2
[41] = system: NCI-H522
[42] = system: OVCAR-3
[43] = system: A498
[44] = system: SNB-19
[45] = system: U-251
[46] = system: HOP-92
[47] = system: NCI/ADR-RES
[48] = system: SF-539
[49] = system: HCT-116
[50] = system: SF-268
[51] = system: OVCAR-4
[52] = system: OVCAR-5
[53] = system: NCI-H460
[54] = system: ACHN
[55] = system: MDA-MB-435
[56] = system: UO-31
[57] = system: NCI-H226

CC(C)(Oc1ccc(C(=O)c2ccc(Cl)cc2)cc1Cl)C(=O)N1CCN(CCO)CC1
GI50 [1]: > 10 µM (inactive)
GI50 [2]: 4.51 µM (inactive)
GI50 [3]: 2.85 µM (inactive)
GI50 [4]: > 10 µM (inactive)
GI50 [5]: > 10 µM (inactive)
GI50 [6]: 4.4 µM (inactive)
GI50 [7]: 8.59 µM (inactive)
GI50 [8]: 7.05 µM (inactive)
GI50 [9]: > 10 µM (inactive)
GI50 [10]: > 10 µM (inactive)
GI50 [11]: > 10 µM (inactive)
GI50 [12]: > 10 µM (inactive)
GI50 [13]: > 10 µM (inactive)
GI50 [14]: > 10 µM (inactive)
GI50 [15]: > 10 µM (inactive)
GI50 [16]: > 10 µM (inactive)
GI50 [17]: > 10 µM (inactive)
GI50 [18]: > 10 µM (inactive)
GI50 [19]: 3.53 µM (inactive)
GI50 [20]: > 10 µM (inactive)
GI50 [21]: > 10 µM (inactive)
GI50 [22]: > 10 µM (inactive)
GI50 [23]: 4.24 µM (inactive)
GI50 [24]: 2.96 µM (inactive)
GI50 [25]: 3.91 µM (inactive)
GI50 [26]: > 10 µM (inactive)
GI50 [27]: > 10 µM (inactive)
GI50 [28]: > 10 µM (inactive)
GI50 [29]: 9.42 µM (inactive)
GI50 [30]: 6.27 µM (inactive)
GI50 [31]: > 10 µM (inactive)
GI50 [32]: > 10 µM (inactive)
GI50 [33]: > 10 µM
GI50 [34]: 5.12 µM (inactive)
GI50 [35]: 3.39 µM (inactive)
GI50 [36]: > 10 µM (inactive)
GI50 [37]: 5.85 µM (inactive)
GI50 [38]: > 10 µM (inactive)
GI50 [39]: 3.93 µM (inactive)

CCOC(=O)c1c(-c2cccc3ccccc23)c(C#N)c(=S)n(C2OC(COC(C)=O)C(OC(C)=O)C(OC(C)=O)C2OC(C)=O)c1C (configuration not stated)
GI50 [1]: > 100 µM (inactive)
GI50 [40]: 64.1 µM (inactive)
GI50 [3]: > 100 µM (inactive)
GI50 [41]: > 100 µM (inactive)
GI50 [4]: > 100 µM (inactive)
GI50 [42]: > 100 µM (inactive)
GI50 [6]: > 100 µM (inactive)
GI50 [43]: > 100 µM (inactive)
GI50 [44]: > 100 µM (inactive)
GI50 [7]: > 100 µM (inactive)
GI50 [45]: > 100 µM (inactive)
GI50 [8]: > 100 µM (inactive)
GI50 [46]: > 100 µM (inactive)
GI50 [9]: > 100 µM (inactive)
GI50 [10]: > 100 µM (inactive)
GI50 [47]: > 100 µM (inactive)
GI50 [12]: > 100 µM (inactive)
GI50 [13]: 13.7 µM (inactive)
GI50 [14]: > 100 µM (inactive)
GI50 [15]: > 100 µM (inactive)
GI50 [16]: > 100 µM (inactive)
GI50 [17]: > 100 µM (inactive)
GI50 [48]: > 100 µM (inactive)
GI50 [49]: > 100 µM (inactive)
GI50 [50]: > 100 µM (inactive)
GI50 [18]: > 100 µM (inactive)
GI50 [19]: > 100 µM (inactive)
GI50 [51]: > 100 µM (inactive)
GI50 [52]: > 100 µM (inactive)
GI50 [20]: > 100 µM (inactive)
GI50 [21]: > 100 µM (inactive)
GI50 [22]: > 100 µM (inactive)
GI50 [23]: > 100 µM (inactive)
GI50 [53]: > 100 µM (inactive)
GI50 [24]: > 100 µM (inactive)
GI50 [25]: > 100 µM (inactive)
GI50 [26]: > 100 µM (inactive)
GI50 [27]: > 100 µM (inactive)
GI50 [28]: > 100 µM (inactive)
GI50 [29]: > 100 µM (inactive)
GI50 [30]: > 100 µM (inactive)
GI50 [32]: > 100 µM (inactive)
GI50 [33]: > 100 µM
GI50 [34]: > 100 µM (inactive)
GI50 [35]: > 100 µM (inactive)
GI50 [54]: > 100 µM (inactive)
GI50 [55]: > 100 µM (inactive)
GI50 [56]: 1.32 µM (inactive)
GI50 [36]: > 100 µM (inactive)
GI50 [37]: > 100 µM (inactive)
GI50 [38]: > 100 µM (inactive)
GI50 [39]: 15.8 µM (inactive)
GI50 [57]: > 100 µM (inactive)

O=C(/C=C/c1ccc(O)cc1)c1ccc2c(c1)OCO2
GI50 [1]: 14.7 µM (inactive)
GI50 [40]: 27 µM (inactive)
GI50 [3]: 20.6 µM (inactive)
GI50 [41]: 12.8 µM (inactive)
GI50 [4]: 15.5 µM (inactive)
GI50 [5]: 4.56 µM (inactive)
GI50 [42]: 16.5 µM (inactive)
GI50 [6]: 13.5 µM (inactive)
GI50 [43]: 23.8 µM (inactive)
GI50 [44]: 17.1 µM (inactive)
GI50 [7]: 21.8 µM (inactive)
GI50 [45]: 18.4 µM (inactive)
GI50 [8]: 33.4 µM (inactive)
GI50 [46]: 22.4 µM (inactive)
GI50 [9]: 18.7 µM (inactive)
GI50 [10]: 20.8 µM (inactive)
GI50 [47]: 25.1 µM (inactive)
GI50 [11]: 36.2 µM (inactive)
GI50 [12]: 1.21 µM (inactive)
GI50 [13]: 12.4 µM (inactive)
GI50 [14]: 17 µM (inactive)
GI50 [15]: 19.4 µM (inactive)
GI50 [16]: 24 µM (inactive)
GI50 [17]: 20.9 µM (inactive)
GI50 [48]: 13.8 µM (inactive)
GI50 [49]: 12.5 µM (inactive)
GI50 [50]: 23.8 µM (inactive)
GI50 [18]: 13.4 µM (inactive)
GI50 [19]: 12.1 µM (inactive)
GI50 [51]: 21.1 µM (inactive)
GI50 [52]: 27.4 µM (inactive)
GI50 [20]: 15.2 µM (inactive)
GI50 [21]: 17.5 µM (inactive)
GI50 [22]: 18 µM (inactive)
GI50 [23]: 18.2 µM (inactive)
GI50 [53]: 26.2 µM (inactive)
GI50 [24]: 10.2 µM (inactive)
GI50 [25]: 16 µM (inactive)
GI50 [26]: 18.7 µM (inactive)
GI50 [27]: 18.5 µM (inactive)
GI50 [29]: 31.8 µM (inactive)
GI50 [30]: 19.3 µM (inactive)
GI50 [31]: 19.1 µM (inactive)
GI50 [32]: 26.1 µM (inactive)
GI50 [33]: 26.1 µM
GI50 [35]: 18.6 µM (inactive)
GI50 [54]: 21.9 µM (inactive)
GI50 [55]: 22.8 µM (inactive)
GI50 [56]: 18.1 µM (inactive)
GI50 [36]: 15.9 µM (inactive)
GI50 [37]: 26.6 µM (inactive)
GI50 [38]: 18.7 µM (inactive)
GI50 [39]: 24.6 µM (inactive)
GI50 [57]: 15.5 µM (inactive)

COc1ccc(/C=C\c2cc(OC)c(OC)c(OC)c2)cc1OP(=O)(O)O
GI50 [47]: 0.000137 µM (active)
